Patent US8324132B2, “Mixture and method for controlling undesired vegetation” (E. I. du Pont de Nemours and Company, priority 2010, dated 2012)

Columns and labels:
Format in all cases: in vivo
[1] = system: dormant bermudagrass (Cynodon dactylon, CYNDA); assay: Test E field plots: dormant bermudagrass phytotoxic response
Source text: (§1) In the following Tests C through E, Colby's equation was used to calculate the expected additive herbicidal effect of nicosulfuron and glyphosate alone and in combination. Colby's equation (S. R. Colby, “Calculating Synergistic and Antagonistic Responses of Herbicide Combinations,” Weeds, 15(1), pp 20-22 (1967)) calculates the expected additive effect of herbicidal mixtures, and for two active ingredients is of the form: Pa+b=Pa+Pb−(PaPb/100) • wherein Pa±b is the percentage effect of the mixture expected from additive contribution of the individual components, • Pa is the observed percentage effect of the first active ingredient at the same use rate as in the mixture, and • Pb is the observed percentage effect of the second active ingredient at the same use rate as in the mixture.
(§2) For mixtures comprising nicosulfuron, metsulfuron-methyl and glyphosate the expected herbicidal effect was calculated based on the combination of nicosulfuron and metsulfuron-methyl providing observed herbicidal effect Pa and glyphosate providing observed herbicidal effect Pb in the Colby Equation. Plant responses to components Pa and Pb range from zero to 100% where zero is no observed response and 100% is complete response (i.e. plant death). Mixtures of herbicides were tested for their ability to express synergism (enhanced weed control) or antagonism (improved tolerance) at several locations in the United States. In the following Tests glyphosate was provided by the potassium salt of glyphosate. Crop phytotoxic response (% phyto) and weed control efficacy (% control) were visually evaluated using a 0-100 scale where zero is no visible response and 100 is plant death. In the following Tables “DAA” means days after application and “g a.i./ha” means grams active ingredient per hectare.
(§3) Herbicides and herbicide mixtures were applied to field plots of dormant bermudagrass (Cynodon dactylon, CYNDA) near Eatonton, Ga. on Mar. 20, 2010 and Decatur, Tex. on Mar. 30, 2010 to control rescuegrass (Bromus catharticus Vahl., BROCA). All herbicides and herbicide mixtures were formulated in water containing 1.0% (vol/vol) crop oil concentrate and applied as a spray mixture to bermudagrass using a backpack sprayer pressurized with CO2.

[2] = system: rescuegrass (Bromus catharticus Vahl., BROCA); assay: Test E field plots: rescuegrass control
Source text: as §1, §2, §3

[3] = system: bermudagrass (Cynodon dactylon, CYNDA); assay: Test D field plots: bermudagrass phytotoxic response
Source text: as §1, §2
(§4) Herbicides and herbicide mixtures were applied to field plots of bermudagrass (Cynodon dactylon, CYNDA) near Lena, Miss. and Paris, Ark. to control knotroot foxtail (Setaria geniculata [Lam.] Beauv., SETGE) approximately one week after the bermudagrass had been cut and harvested. All herbicides and herbicide mixtures were formulated in water containing 0.25% (vol/vol) non-ionic surfactant (“NIS” provided by INDUCE®) and applied to bermudagrass stubble as a spray mixture using a backpack sprayer pressurized with CO2.

[4] = system: field sandbur (Cenchrus incertus M. A. Curtis, CCHIN); assay: Test C field plots: field sandbur control
Source text: as §1, §2
(§5) Herbicides and herbicide mixtures were applied to field plots of bermudagrass (Cynodon dactylon, CYNDA) near De Leon, Tex., Yukon, Okla. and Burlington, Okla. to control field sandbur (Cenchrus incertus M. A. Curtis, CCHIN) approximately one week after the bermudagrass had been cut and harvested. All herbicides and herbicide mixtures were formulated in water containing 0.25% (vol/vol) non-ionic surfactant (“NIS” provided by INDUCE®) and applied as a spray mixture to bermudagrass stubble using a backpack sprayer pressurized with CO2.

[5] = system: bermudagrass (Cynodon dactylon, CYNDA); assay: Test C field plots: bermudagrass phytotoxic response
Source text: as §1, §2, §5

[6] = system: knotroot foxtail (Setaria geniculata [Lam.] Beauv., SETGE); assay: Test D field plots: knotroot foxtail control
Source text: as §1, §2, §4

[7] = nicosulfuron 39 g a.i./ha, 30 DAA, Decatur, TX
[8] = nicosulfuron 39 g a.i./ha, 45 DAA, Eatonton, GA
[9] = nicosulfuron 39 g a.i./ha, 60 DAA, Decatur, TX
[10] = nicosulfuron 39 g a.i./ha, 30 DAA, Paris, AR
[11] = nicosulfuron 39 g a.i./ha, 60 DAA, Paris, AR
[12] = nicosulfuron 39 g a.i./ha, 15 DAA, De Leon, TX
[13] = nicosulfuron 39 g a.i./ha, 30 DAA, Yukon, OK
[14] = nicosulfuron 39 g a.i./ha, 90 DAA, Yukon, OK and Burlington, OK
[15] = glyphosate 144 g a.i./ha, 30 DAA, Decatur, TX
[16] = glyphosate 144 g a.i./ha, 45 DAA, Eatonton, GA
[17] = glyphosate 144 g a.i./ha, 60 DAA, Decatur, TX
[18] = glyphosate 289 g a.i./ha, 30 DAA, Decatur, TX
[19] = glyphosate 289 g a.i./ha, 45 DAA, Eatonton, GA
[20] = glyphosate 289 g a.i./ha, 60 DAA, Decatur, TX
[21] = glyphosate 96 g a.i./ha, 30 DAA, Paris, AR
[22] = glyphosate 96 g a.i./ha, 60 DAA, Paris, AR
[23] = glyphosate 192 g a.i./ha, 15 DAA, Lena, MS
[24] = glyphosate 192 g a.i./ha, 30 DAA, Paris, AR
[25] = glyphosate 192 g a.i./ha, 60 DAA, Paris, AR
[26] = glyphosate 289 g a.i./ha, 15 DAA, Lena, MS
[27] = glyphosate 289 g a.i./ha, 30 DAA, Paris, AR
[28] = glyphosate 289 g a.i./ha, 60 DAA, Paris, AR
[29] = glyphosate 96 g a.i./ha, 15 DAA, De Leon, TX
[30] = glyphosate 96 g a.i./ha, 30 DAA, Yukon, OK
[31] = glyphosate 96 g a.i./ha, 90 DAA, Yukon, OK and Burlington, OK
[32] = glyphosate 192 g a.i./ha, 15 DAA, De Leon, TX
[33] = glyphosate 192 g a.i./ha, 30 DAA, Yukon, OK
[34] = glyphosate 192 g a.i./ha, 90 DAA, Yukon, OK and Burlington, OK
[35] = glyphosate 289 g a.i./ha, 15 DAA, De Leon, TX
[36] = glyphosate 289 g a.i./ha, 30 DAA, Yukon, OK
[37] = glyphosate 289 g a.i./ha, 90 DAA, Yukon, OK and Burlington, OK

SMILES: COc1cc(OC)nc(NC(=O)NS(=O)(=O)c2ncccc2C(=O)N(C)C)n1 [Nicosulfuron, nicosulfuron]
- CYNDA (% phyto) Observed [1, 7]: 0%
- CYNDA (% phyto) Observed [1, 8]: 0%
- CYNDA (% phyto) Observed [1, 9]: 0%
- BROCA (% control) Observed ([2]; nicosulfuron 39 g a.i./ha, 15 DAA, Eatonton, GA): 10%
- BROCA (% control) Observed [2, 7]: 63%
- BROCA (% control) Observed [2, 8]: 79%
- BROCA (% control) Observed [2, 9]: 53%
- CYNDA (% phyto) Observed [3, 10]: 3%
- CYNDA (% phyto) Observed [3, 11]: 0%
- CCHIN (% control) Observed [4, 12]: 65%
- CCHIN (% control) Observed [4, 13]: 78%
- CCHIN (% control) Observed [4, 14]: 88%
- CYNDA (% phyto) Observed [5, 12]: 5%
- CYNDA (% phyto) Observed [5, 13]: 10%
- CYNDA (% phyto) Observed [5, 14]: 0%
- SETGE (% control) Observed [6, 10]: 28%
- SETGE (% control) Observed [6, 11]: 10%

SMILES: O=C(O)CNCP(=O)(O)O [Glyphosate, glyphosate]
- CYNDA (% phyto) Observed [1, 15]: 0%
- CYNDA (% phyto) Observed [1, 16]: 0%
- CYNDA (% phyto) Observed [1, 17]: 0%
- CYNDA (% phyto) Observed [1, 18]: 0%
- CYNDA (% phyto) Observed [1, 19]: 0%
- CYNDA (% phyto) Observed [1, 20]: 0%
- BROCA (% control) Observed ([2]; glyphosate 144 g a.i./ha, 15 DAA, Eatonton, GA): 0%
- BROCA (% control) Observed [2, 15]: 0%
- BROCA (% control) Observed [2, 16]: 88%
- BROCA (% control) Observed [2, 17]: 0%
- BROCA (% control) Observed ([2]; glyphosate 289 g a.i./ha, 15 DAA, Eatonton, GA): 87%
- BROCA (% control) Observed [2, 18]: 0%
- BROCA (% control) Observed [2, 19]: 95%
- BROCA (% control) Observed [2, 20]: 0%
- CYNDA (% phyto) Observed [3, 21]: 0%
- CYNDA (% phyto) Observed [3, 22]: 0%
- CYNDA (% phyto) Observed [3, 23]: 18%
- CYNDA (% phyto) Observed [3, 24]: 2%
- CYNDA (% phyto) Observed [3, 25]: 0%
- CYNDA (% phyto) Observed [3, 26]: 20%
- CYNDA (% phyto) Observed [3, 27]: 11%
- CYNDA (% phyto) Observed [3, 28]: 0%
- CCHIN (% control) Observed [4, 29]: 60%
- CCHIN (% control) Observed [4, 30]: 2%
- CCHIN (% control) Observed [4, 31]: 55%
- CCHIN (% control) Observed [4, 32]: 74%
- CCHIN (% control) Observed [4, 33]: 18%
- CCHIN (% control) Observed [4, 34]: 63%
- CCHIN (% control) Observed [4, 35]: 89%
- CCHIN (% control) Observed [4, 36]: 35%
- CCHIN (% control) Observed [4, 37]: 75%
- CYNDA (% phyto) Observed [5, 29]: 0%
- CYNDA (% phyto) Observed [5, 30]: 0%
- CYNDA (% phyto) Observed [5, 31]: 0%
- CYNDA (% phyto) Observed [5, 32]: 5%
- CYNDA (% phyto) Observed [5, 33]: 0%
- CYNDA (% phyto) Observed [5, 34]: 0%
- CYNDA (% phyto) Observed [5, 35]: 13%
- CYNDA (% phyto) Observed [5, 36]: 0%
- CYNDA (% phyto) Observed [5, 37]: 0%
- SETGE (% control) Observed [6, 21]: 7%
- SETGE (% control) Observed [6, 22]: 3%
- SETGE (% control) Observed [6, 23]: 79%
- SETGE (% control) Observed [6, 24]: 28%
- SETGE (% control) Observed [6, 25]: 18%
- SETGE (% control) Observed [6, 26]: 84%
- SETGE (% control) Observed [6, 27]: 40%
- SETGE (% control) Observed [6, 28]: 20%
